Tested on: CD44
Experiment: Expression of CD44 on cultured normal human skin explants, indirect immunoperoxidase histochemistry
Type: cell-based
Conditions: for Histochemical analysis of the CD44 receptor (semiquantitative scores), Mean ± sd n = 8: skin explants cultured 14 days
Description: CD44 is a transmembrane glycoprotein with a molecular weight of 80-95 kDa (CD44). The increase in the expression of this receptor at the surface of the cells of the skin improves the binding of hyaluronic acid, collagen and fibronectin. This binding makes possible in particular hydration of the dermis and epidermis.
Normal human skin fragments are obtained by plastic surgery and are deposited in culture plates. The skin explants are cultured for 14 days and compound A is added daily at 0.3 or 3 mM. At the end of culturing, the skin explants are fixed in Bouin's fluid and embedded in paraffin wax. Sections are produced and the receptor is visualized by a 3-layer indirect immunoperoxidase technique (ABC peroxidase kit, Vector Laboratories).
Histochemical analysis of the CD44 receptor (semiquantitative scores);

activity on expression of CD44 (in words) (0.3 mM): present | activity on expression of CD44 (in words) (higher concentration (3 mM)): again encountered | Histochemical analysis of the CD44 receptor (semiquantitative scores), Mean ± sd n = 8 (compound added daily at 0.3 mM): 2.30 ± 1.00 | Histochemical analysis of the CD44 receptor (semiquantitative scores), Mean ± sd n = 8 (compound added daily at 3.0 mM): 2.00 ± 1.10 | expression of CD44 (histological evaluation, in words) (skin explants treated daily for 14 days): significant increase
SMILES: CC(O)C[C@@H]1OC[C@@H](O)[C@H](O)[C@H]1O (stereo partly drawn) [compound A, C-β-D-xylopyranoside-2-hydroxypropane]
